Reference: US8729122B2, “Pharmaceutical and nutraceutical compositions of abscisic acid” (Valent BioSciences Corporation, priority 2010, dated 2014)
Values joined by “and” are separate entries in the source; they are usually repeats but may differ in a detail not shown here. Equal entries are not always repeated.

How the values were obtained:
rats [1] = assay: Rat neurotoxicity testing; type: in vivo; settings: especially female
rats [2] = assay: 21-day Dermal Toxicity Study, removal of adhesive bandage; type: in vivo; settings: for Total No. of Removals (adhesive bandage), individual animals: 3 weeks
Experimental: Animals were allocated to dose groups and treated as follows:
Animals were dosed daily by dermal administration, with an exposure period of 6 hours, 7 days/week for a period of 3 weeks.
The lumbar region of the animals was clipped to expose the skin (approximately 6×6 cm) with the test formulation being spread evenly over this area. A dressing of foil gauze and self adhesive bandage was wrapped around the torso to prevent oral ingestion. Following 6 hours of exposure the dressings were removed and the dose area wiped clean with a cloth dampened with distilled water.
During the dosing period it was noted that some animals were able to get the adhesive bandage off during the 6 hour exposure period.

[3] = Fetal data at scheduled necropsy; type: in vivo, rats
Source text: Observations and testing results from this study can be seen in Tables 1, 3 and 6-13 below.
Further supporting data can be seen below in Tables 10 and 11 showing that at necropsy fetus numbers and follicle size increase with the addition of S-ABA.

rats [4] = assay: Two Generation Reproduction Toxicity Study (dietary S-ABA); type: in vivo
Experimental: Two Generation Reproduction Toxicity Study
This study was conducted to determine the potential adverse effects of the test substance on reproduction in a 2-generation study. This included determining the effects of the test substance on male and female reproductive processes, including gonadal function, estrous cyclicity, mating behavior, conception, gestation, parturition, lactation, weaning, and on growth and development of the offspring. A minimum of 1 litter was produced in each generation.
Three groups of male and female were offered S-ABA, continuously in the diet for at least 70 consecutive days prior to mating. Target tests substance concentrations were 10,000, 15,000, and 20,000 ppm for the F0 and F1 generations. A concurrent control group of 30 rats/sex was offered the basal diet continuously throughout the study. F0 animals were approximately 7 weeks of age at the initiation of test diet administration. The test diet was administered to the offspring selected to become the F1 generation following weaning. The F0 and F1 males continued to receive the test substance throughout mating and continuing through the day prior to euthanasia. The F0 and F1 females continued to receive the test substance throughout mating, gestation, and lactation, and through the day of euthanasia. For both generations (F1 and F2), 8 pups per litter (4 per sex, when possible) were selected to reduce the variability among the litters. Offspring (30/sex/group, if possible) from the pairing of the F0 animals were selected to constitute the F1 generation.
All animals were observed twice daily for appearance and behavior. Clinical observations, body weights, and food consumption were recorded at appropriate intervals for males throughout the study and for females prior to mating and during gestation and lactation. All F0 and F1 females were allowed to deliver and rear their pups until weaning on lactation day 21. Clinical observations, body weights, and sexes for F1 and F2 pups were recorded at appropriate intervals. Nonselected F1 pups and all surviving F2 pups were necropsied. Selected organs were weighed from 1 pup/sex/litter from F1 and F2 pups that were necropsied. Each surviving F0 and F1 parental animal received a complete detailed gross necropsy following the completion of weaning of the F1 and F2 pups, respectively; selected organs were weighed. Spermatogenic endpoints were recorded for all F0 and F1 males, and ovarian primordial follicle counts were recorded for all F0 and F1 females in the control and high-exposure groups and all F0 and F1 females suspected of reduced fertility. Designated tissues from all F0 and F1 parental animals were examined microscopically.

For CC1=CC(=O)CC(C)(C)[C@@]1(O)/C=C/C(C)=C\C(=O)O [S-ABA, (S)-(+)-abscisic acid], the alertness (rats [1]) was “heighten alertness”, the “ability to remove the adhesive bandage” value (rats [2]; female rats in the treatment group) was “much better at removing the adhesive bandage” and the “Total No. of Removals (adhesive bandage), individual animals” value (“Total No. of Removals (adhesive bandage)” below) (rats [2]; group 2F, females, 100 mg/kg/day dermal, 100 mg/kg/day) was 4 and 1. For the same compound, the “Total No. of Removals (adhesive bandage)” value (rats [2]; group 2M, males, 100 mg/kg/day dermal) was 1, the “Total No. of Removals (adhesive bandage)” value (rats [2]; group 3F, females, 300 mg/kg/day dermal, 300 mg/kg/day) was 2 and 3 and the “Total No. of Removals (adhesive bandage)” value (rats [2]; group 4F, females, 1000 mg/kg/day dermal, 1000 mg/kg/day) was 3 and 7 and 6. For the same compound, the “Total No. of Removals (adhesive bandage)” value (rats [2]; group 4M, males, 1000 mg/kg/day dermal) was 1, the “FEMALE fetuses at scheduled necropsy, MEAN” value (from here on “FEMALE fetuses”) ([3]; group 2, 500 MG/KG/DAY) was 7.2 and the “MALE fetuses at scheduled necropsy, MEAN” value ([3]; group 2, 500 MG/KG/DAY) was 7.5. For the same compound, the “VIABLE FETUSES at scheduled necropsy, MEAN” value (shortened to “VIABLE FETUSES”) ([3]; group 2, 500 MG/KG/DAY) was 14.7, the “FEMALE fetuses” value ([3]; group 3, 750 MG/KG/DAY) was 6.6 and the “MALE fetuses at scheduled necropsy, MEAN” value ([3]; group 3, 750 MG/KG/DAY) was 7.5. For the same compound, the “VIABLE FETUSES” value ([3]; group 3, 750 MG/KG/DAY) was 14.2, the “FEMALE fetuses” value ([3]; group 4, 1,000 MG/KG/DAY) was 8.3 and the “MALE fetuses at scheduled necropsy, MEAN” value ([3]; group 4, 1,000 MG/KG/DAY) was 6.8. The “VIABLE FETUSES” value ([3]; group 4, 1,000 MG/KG/DAY) was 15.1, the “SPERM PRODUCTION RATE, mean” value (rats [4]; 10,000 PPM) was 10.3 MILLIONS/GRAM/DAY and the “Mean Live Offspring Born (per litter)” value (rats [4]; 10,000 ppm) was 12.3. For the same compound, the “Offspring Born” value (rats [4]; 10,000 ppm) was 322, the “Offspring FOUND DEAD” value (rats [4]; 10,000 ppm) was 4 and the “POSTNATAL SURVIVAL, BIRTH-4 (PRE-SELECT), mean” value (rats [4]; 10,000 ppm) was 98.6 % PER LITTER. For the same compound, the “POSTNATAL SURVIVAL, POSTNATAL DAY 0 (RELATIVE TO # BORN), mean” value (rats [4]; 10,000 ppm) was 99.7 % PER LITTER, the “POSTNATAL SURVIVAL, POSTNATAL DAY 0-1, mean” value (rats [4]; 10,000 ppm) was 100.0 % PER LITTER and the “POSTNATAL SURVIVAL, POSTNATAL DAY 1-4 (PRE-SELECTION), mean” value (rats [4]; 10,000 ppm) was 98.9 % PER LITTER. The “POSTNATAL SURVIVAL, POSTNATAL DAY 4 (POST-SELECT)-21, mean” value (rats [4]; 10,000 ppm) was 99.5 % PER LITTER, the “POSTNATAL SURVIVAL, POSTNATAL DAY 4 (POST-SELECTION)-7, mean” value (rats [4]; 10,000 ppm) was 99.5 % PER LITTER and the “POSTNATAL SURVIVAL, POSTNATAL DAY 7-14, mean” value (rats [4]; 10,000 ppm) was 100.0 % PER LITTER. The “POSTNATAL SURVIVAL, POSTNATAL DAY 14-21, mean” value (rats [4]; 10,000 ppm) was 100.0 % PER LITTER, the “OFFSPRING WEIGHT, mean” value (rats [4]; 10,000 ppm, female, postnatal day 1) was 6.6 grams and the “OFFSPRING WEIGHT, mean” value (rats [4]; 10,000 ppm, female, postnatal day 4) was 9.1 grams. For the same compound, the “OFFSPRING WEIGHT, mean” value (rats [4]; 10,000 ppm, female, postnatal day 7) was 14.3 grams, the “OFFSPRING WEIGHT, mean” value (rats [4]; 10,000 ppm, female, postnatal day 14) was 29.9 grams and the “OFFSPRING WEIGHT, mean” value (rats [4]; 10,000 ppm, female, postnatal day 21) was 45.5 grams. The “OFFSPRING WEIGHT, mean” value (rats [4]; 10,000 ppm, male, postnatal day 1) was 7.1 grams, the “OFFSPRING WEIGHT, mean” value (rats [4]; 10,000 ppm, male, postnatal day 4) was 9.7 grams and the “OFFSPRING WEIGHT, mean” value (rats [4]; 10,000 ppm, male, postnatal day 7) was 15.2 grams. The “OFFSPRING WEIGHT, mean” value (rats [4]; 10,000 ppm, male, postnatal day 14) was 30.9 grams, the “OFFSPRING WEIGHT, mean” value (rats [4]; 10,000 ppm, male, postnatal day 21) was 47.9 grams and the offspring mortality (rats [4]; 10,000 ppm, control 4.57%) was 1.24%. For the same compound, the “SPERM PRODUCTION RATE, mean” value (rats [4]; 15,000 PPM) was 10.7 MILLIONS/GRAM/DAY, the “Mean Live Offspring Born (per litter)” value (rats [4]; 15,000 ppm) was 13.1 and the “Offspring Born” value (rats [4]; 15,000 ppm) was 375. For the same compound, the “Offspring FOUND DEAD” value (rats [4]; 15,000 ppm) was 15, the “POSTNATAL SURVIVAL, BIRTH-4 (PRE-SELECT), mean” value (rats [4]; 15,000 ppm) was 93.2 % PER LITTER and the “POSTNATAL SURVIVAL, POSTNATAL DAY 0 (RELATIVE TO # BORN), mean” value (rats [4]; 15,000 ppm) was 96.1 % PER LITTER. The “POSTNATAL SURVIVAL, POSTNATAL DAY 0-1, mean” value (rats [4]; 15,000 ppm) was 98.5 % PER LITTER, the “POSTNATAL SURVIVAL, POSTNATAL DAY 1-4 (PRE-SELECTION), mean” value (rats [4]; 15,000 ppm) was 98.5 % PER LITTER and the “POSTNATAL SURVIVAL, POSTNATAL DAY 4 (POST-SELECT)-21, mean” value (rats [4]; 15,000 ppm) was 98.2 % PER LITTER. For the same compound, the “POSTNATAL SURVIVAL, POSTNATAL DAY 4 (POST-SELECTION)-7, mean” value (rats [4]; 15,000 ppm) was 99.6 % PER LITTER, the “POSTNATAL SURVIVAL, POSTNATAL DAY 7-14, mean” value (rats [4]; 15,000 ppm) was 98.7 % PER LITTER and the “POSTNATAL SURVIVAL, POSTNATAL DAY 14-21, mean” value (rats [4]; 15,000 ppm) was 100.0 % PER LITTER. For the same compound, the “OFFSPRING WEIGHT, mean” value (rats [4]; 15,000 ppm, female, postnatal day 1) was 6.6 grams and the “OFFSPRING WEIGHT, mean” value (rats [4]; 15,000 ppm, female, postnatal day 4) was 8.8 grams.
